In patent US8686113B2 (priority 2009, dated 2014):
≈ marks a conversion by molar mass, not a printed value. Non-standard residues stand in square brackets, D forms with d. Residues, ends and D or L forms follow the SMILES beside them. Hyp = O=C(O)[C@@H]1C[C@@H](O)CN1; hArg = N=C(N)NCCCC[C@H](N)C(=O)O; Agp = N=C(N)NC[C@H](N)C(=O)O; dOrn = NCCC[C@@H](N)C(=O)O; Orn = NCCC[C@H](N)C(=O)O

Experiments:
E. coli BL21 A1 = type: cell-based, Escherichia coli; details: BL21, 20 h
Description: (§1) The minimum inhibitory concentrations (MIC) of the antimicrobial peptides and peptide derivatives were determined in microdilution assays. These used a continuous peptide dilution in sterile flat-bottomed 96-well microtiter plates (polystyrene, Greiner Bio-One GmbH, Frickenhausen, Germany) and a total volume of 100 μL per well. The aqueous peptide or peptidomimetic solutions were diluted with 1% TSB water, to obtain a final concentration of 256 μg/mL. 50 μL of the peptide or peptidomimetic solution was pipetted into the first well of each series and stirred. From this solution, 50 μL was transferred to the second well, stirred and again 50 μL was transferred to the next well, and so on. A double dilution series is obtained, beginning at 256 μg/mL in the first well to 125 ng/mL in the twelfth well. The bacteria, e.g. E. coli BL21 A1, were cultured overnight at 37° C. in nutrient broth (NB, Carl Roth GmbH+Co. KG, Karlsruhe, Germany). 50 μL of a 5×10^6 bacteria/mL suspension in 1% TSB was added to each well of the microtiter plate and thus a final concentration of the peptides or peptidomimetics from 128 μg/mL (well 1) to 62.5 ng/mL (well 12) was established in each series. The plates were incubated at 37° C. for 20 h and then the absorption was measured at 595 nm with a TECAN microtiter plate spectrophotometer (Tecan Trading AG, Mannedorf, Switzerland). The MIC values of all peptides and peptidomimetics were determined in triplicate. Sterile water was used as negative control. The MIC value represents the lowest peptide concentration at which no bacterial growth is observed after an incubation time of 20 h at 37° C.
(§2) The MIC values of the peptides and peptide derivatives against Escherichia coli BL21 A1 and Micrococcus luteus ATCC 10240 are given in Table 7.

M. luteus 10240 = test: Growth inhibition assay (microdilution MIC); type: cell-based, Micrococcus luteus; details: 10240, 20 h
Description: as §1, §2

Compound	MIC E. coli BL21 A1 (E. coli BL21 A1)	MIC M. luteus 10240 (M. luteus 10240)
CC[C@H](C)[C@H](NC(=O)[C@H](CCCCNC(=N)N)NC(=O)[C@H](CCCNC(=N)N)NC(=O)[C@@H]1CCCN1C(=O)[C@@H]1CCCN1C(=O)[C@H](CCCNC(=N)N)NC(=O)[C@@H]1CCCN1C(=O)[C@H](CCCNC(=N)N)NC(=O)[C@@H]1CCCN1C(=O)[C@H](CC(C)C)NC(=O)[C@H](Cc1ccc(O)cc1)NC(=O)[C@@H]1CCCN1C(=O)[C@@H]1CCCN1C(=O)[C@H](CCCCN)NC(=O)[C@H](CC(=O)O)NC(=O)[C@@H](N)C(C)C)C(=O)N[C@@H](Cc1ccc(O)cc1)C(=O)N[C@@H](CC(N)=O)C(=O)N[C@@H](CNC(=N)N)C(N)=O [compound 68] (H-VDKPPYLPRPRPPR[hArg]IYN[Agp]-NH2)	4 µg/mL (≈ 1.68 µM)	4 µg/mL (≈ 1.68 µM)
CC[C@H](C)[C@H](NC(=O)[C@H](CCCN)NC(=O)[C@H](CCCNC(=N)N)NC(=O)[C@@H]1CCCN1C(=O)[C@@H]1CCCN1C(=O)[C@H](CCCNC(=N)N)NC(=O)[C@@H]1CCCN1C(=O)[C@H](CCCNC(=N)N)NC(=O)[C@@H]1CCCN1C(=O)[C@H](CC(C)C)NC(=O)[C@H](Cc1ccc(O)cc1)NC(=O)[C@@H]1CCCN1C(=O)[C@@H]1CCCN1C(=O)[C@H](CCCCN)NC(=O)[C@H](CC(=O)O)NC(=O)[C@@H](N)C(C)C)C(=O)N[C@@H](Cc1ccc(O)cc1)C(=O)N[C@@H](CC(N)=O)C(=O)N[C@@H](CNC(=N)N)C(N)=O [compound 69] (H-VDKPPYLPRPRPPR[Orn]IYN[Agp]-NH2)	4 µg/mL (≈ 1.72 µM)	4 µg/mL (≈ 1.72 µM)
CC[C@H](C)[C@H](NC(=O)[C@H](CCCN)NC(=O)[C@H](CCCNC(=N)N)NC(=O)[C@@H]1CCCN1C(=O)[C@@H]1CCCN1C(=O)[C@H](CCCNC(=N)N)NC(=O)[C@@H]1CCCN1C(=O)[C@H](CCCNC(=N)N)NC(=O)[C@@H]1CCCN1C(=O)[C@H](CC(C)C)NC(=O)[C@H](Cc1ccc(O)cc1)NC(=O)[C@@H]1CCCN1C(=O)[C@@H]1CCCN1C(=O)[C@H](CCCCN)NC(=O)[C@H](CC(=O)O)NC(=O)[C@@H](N)C(C)C)C(=O)N[C@@H](Cc1ccc(O)cc1)C(=O)N[C@@H](CC(N)=O)C(=O)N[C@@H](CCCCNC(=N)N)C(N)=O [compound 70] (H-VDKPPYLPRPRPPR[Orn]IYN[hArg]-NH2)	4 µg/mL (≈ 1.69 µM)	4 µg/mL (≈ 1.69 µM)
CC[C@H](C)[C@H](NC(=O)[C@H](CCCNC(=N)N)NC(=O)[C@H](CCCNC(=N)N)NC(=O)[C@@H]1CCCN1C(=O)[C@@H]1CCCN1C(=O)[C@H](CCCNC(=N)N)NC(=O)[C@@H]1CCCN1C(=O)[C@H](CCCNC(=N)N)NC(=O)[C@@H]1CCCN1C(=O)[C@H](CC(C)C)NC(=O)[C@H](Cc1ccc(O)cc1)NC(=O)[C@@H]1CCCN1C(=O)[C@@H]1CCCN1C(=O)[C@H](CCCCN)NC(=O)[C@H](CC(=O)O)NC(=O)[C@@H](NC(=O)[C@@H](CS)NC(=O)[C@H](C)N)C(C)C)C(=O)N[C@@H](Cc1ccc(O)cc1)C(=O)N[C@@H](CC(N)=O)C(=O)N[C@@H](CCCNC(=N)N)C(=O)O [compound 80] (H-A[dC]VDKPPYLPRPRPPRRIYNR-OH)	>256 µg/mL	16 µg/mL (≈ 6.24 µM)
CC[C@H](C)[C@H](NC(=O)[C@H](CCCNC(=N)N)NC(=O)[C@H](CCCNC(=N)N)NC(=O)[C@@H]1CCCN1C(=O)[C@@H]1CCCN1C(=O)[C@H](CCCNC(=N)N)NC(=O)[C@@H]1CCCN1C(=O)[C@H](CCCNC(=N)N)NC(=O)[C@@H]1CCCN1C(=O)[C@H](CC(C)C)NC(=O)[C@H](Cc1ccc(O)cc1)NC(=O)[C@@H]1CCCN1C(=O)[C@@H]1CCCN1C(=O)[C@H](CCCCN)NC(=O)[C@H](CC(=O)O)NC(=O)[C@@H](N)CCCN)C(=O)N[C@@H](Cc1ccc(O)cc1)C(=O)N[C@@H](CC(N)=O)C(=O)N[C@@H](CCCNC(=N)N)C(N)=O [compound 82] (H-[Orn]DKPPYLPRPRPPRRIYNR-NH2)	8 µg/mL (≈ 3.33 µM)	8 µg/mL (≈ 3.33 µM)
CC[C@H](C)[C@H](NC(=O)[C@H](CCCNC(=N)N)NC(=O)[C@H](CCCNC(=N)N)NC(=O)[C@@H]1CCCN1C(=O)[C@@H]1CCCN1C(=O)[C@H](CCCNC(=N)N)NC(=O)[C@@H]1CCCN1C(=O)[C@H](CCCNC(=N)N)NC(=O)[C@@H]1CCCN1C(=O)[C@H](CC(C)C)NC(=O)[C@H](Cc1ccc(O)cc1)NC(=O)[C@@H]1CCCN1C(=O)[C@@H]1CCCN1C(=O)[C@H](CCCCN)NC(=O)[C@H](CC(=O)O)NC(=O)[C@H](CCCN)NC(=O)[C@@H](CS)NC(=O)[C@H](C)N)C(=O)N[C@@H](Cc1ccc(O)cc1)C(=O)N[C@@H](CC(N)=O)C(=O)N[C@@H](CCCNC(=N)N)C(N)=O [compound 83] (H-A[dC][Orn]DKPPYLPRPRPPRRIYNR-NH2)	16 µg/mL (≈ 6.2 µM)	16 µg/mL (≈ 6.2 µM)
CC[C@H](C)[C@H](NC(=O)[C@H](Cc1ccc(O)cc1)NC(=O)[C@H](CC(N)=O)NC(=O)[C@@H](N)CCCN)C(=O)N[C@@H](CCCN)C(=O)N[C@@H](CCCNC(=N)N)C(=O)N1CCC[C@H]1C(=O)N1CCC[C@H]1C(=O)N[C@@H](CCCNC(=N)N)C(=O)N1CCC[C@H]1C(=O)N[C@@H](CCCNC(=N)N)C(=O)N1CCC[C@H]1C(=O)N[C@@H](CC(C)C)C(=O)N[C@@H](Cc1ccc(O)cc1)C(=O)N1CCC[C@H]1C(=O)N1CCC[C@H]1C(=O)N[C@@H](CCCCN)C(=O)N[C@@H](CC(=O)O)C(=O)N[C@H](C(N)=O)C(C)C [compound 113] (H-[Orn]NYI[Orn]RPPRPRPLYPPKDV-NH2)	>256 µg/mL	64 µg/mL (≈ 27.8 µM)
CC[C@H](C)[C@H](NC(=O)[C@H](Cc1ccc(O)cc1)NC(=O)[C@H](CC(N)=O)NC(=O)[C@@H](N)CCCN)C(=O)N1C[C@H](O)C[C@H]1C(=O)N[C@@H](CCCNC(=N)N)C(=O)N1CCC[C@H]1C(=O)N1CCC[C@H]1C(=O)N[C@@H](CCCNC(=N)N)C(=O)N1CCC[C@H]1C(=O)N[C@@H](CCCNC(=N)N)C(=O)N1CCC[C@H]1C(=O)N[C@@H](CC(C)C)C(=O)N[C@@H](Cc1ccc(O)cc1)C(=O)N1CCC[C@H]1C(=O)N1CCC[C@H]1C(=O)N[C@@H](CCCCN)C(=O)N[C@@H](CC(=O)O)C(=O)N[C@H](C(N)=O)C(C)C [compound 114] (H-[Orn]NYI[Hyp]RPPRPRPLYPPKDV-NH2)	>256 µg/mL	128 µg/mL (≈ 55.5 µM)
CC[C@@H](C)[C@@H](NC(=O)[C@@H](CCCNC(=N)N)NC(=O)[C@@H](CCCNC(=N)N)NC(=O)[C@H]1CCCN1C(=O)[C@H]1CCCN1C(=O)[C@@H](CCCNC(=N)N)NC(=O)[C@H]1CCCN1C(=O)[C@@H](CCCNC(=N)N)NC(=O)[C@H]1CCCN1C(=O)[C@@H](CC(C)C)NC(=O)[C@@H](Cc1ccc(O)cc1)NC(=O)[C@H]1CCCN1C(=O)[C@H]1CCCN1C(=O)[C@@H](CCCCN)NC(=O)[C@@H](CC(=O)O)NC(=O)[C@H](N)C(C)C)C(=O)N[C@H](Cc1ccc(O)cc1)C(=O)N[C@H](CC(N)=O)C(=O)N[C@H](CCCNC(=N)N)C(N)=O [compound 115] (H-[dV][dD][dK][dP][dP][dY][dL][dP][dR][dP][dR][dP][dP][dR][dR][dI][dY][dN][dR]-NH2)	64 µg/mL (≈ 26.8 µM)	16 µg/mL (≈ 6.69 µM)
CC[C@@H](C)[C@@H](NC(=O)[C@@H](CCCN)NC(=O)[C@@H](CCCNC(=N)N)NC(=O)[C@H]1CCCN1C(=O)[C@H]1CCCN1C(=O)[C@@H](CCCNC(=N)N)NC(=O)[C@H]1CCCN1C(=O)[C@@H](CCCNC(=N)N)NC(=O)[C@H]1CCCN1C(=O)[C@@H](CC(C)C)NC(=O)[C@@H](Cc1ccc(O)cc1)NC(=O)[C@H]1CCCN1C(=O)[C@H]1CCCN1C(=O)[C@@H](CCCCN)NC(=O)[C@@H](CC(=O)O)NC(=O)[C@H](N)C(C)C)C(=O)N[C@H](Cc1ccc(O)cc1)C(=O)N[C@H](CC(N)=O)C(=O)N[C@H](CCCN)C(N)=O [compound 116] (H-[dV][dD][dK][dP][dP][dY][dL][dP][dR][dP][dR][dP][dP][dR][dOrn][dI][dY][dN][dOrn]-NH2)	64 µg/mL (≈ 27.8 µM)	32 µg/mL (≈ 13.9 µM)
CC[C@@H](C)[C@@H](NC(=O)[C@@H](Cc1ccc(O)cc1)NC(=O)[C@@H](CC(N)=O)NC(=O)[C@H](N)CCCN)C(=O)N[C@H](CCCN)C(=O)N[C@H](CCCNC(=N)N)C(=O)N1CCC[C@@H]1C(=O)N1CCC[C@@H]1C(=O)N[C@H](CCCNC(=N)N)C(=O)N1CCC[C@@H]1C(=O)N[C@H](CCCNC(=N)N)C(=O)N1CCC[C@@H]1C(=O)N[C@H](CC(C)C)C(=O)N[C@H](Cc1ccc(O)cc1)C(=O)N1CCC[C@@H]1C(=O)N1CCC[C@@H]1C(=O)N[C@H](CCCCN)C(=O)N[C@H](CC(=O)O)C(=O)N[C@@H](C(N)=O)C(C)C [compound 118] (H-[dOrn][dN][dY][dI][dOrn][dR][dP][dP][dR][dP][dR][dP][dL][dY][dP][dP][dK][dD][dV]-NH2)	256 µg/mL (≈ 111 µM)	32 µg/mL (≈ 13.9 µM)
H-ADKPPYLPRPRPPRRIYNR-NH2 [compound 29]	8 µg/mL	4 µg/mL
H-DKPPYLPRPRPPRRIYNR-NH2 [compound 86]	32 µg/mL	8 µg/mL
